Laboratory results: patent US20240391862A1, “(1,4,5-TRISUBSTITUTED-1H-PYRAZOL-3-YL)OXY-2-ALKOXY ALKYL ACIDS AND THEIR DERIVATIVES, THEIR SALTS AND THEIR USE AS HERBICIDAL AGENTS” (Bayer AKtiengesellschaft, priority 2021, published 2024)

How the values were obtained:
POLCO = assay: Post-emergence herbicidal effect, greenhouse pot test; format: in vivo, Fallopia convolvulus; details: for pest or weed control at 320 g/ha: Fallopia convolvulus, 504 h, read-out: Post-emergence effect against POLCO in %
Procedure, shortened: (§1)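 Weeds sown in sandy loam, greenhouse-grown 2–3 weeks, then sprayed at one-leaf stage with WP or EC formulations in water plus 0.5% additive at 600 l/ha. Rates 20 to 320 g/ha. Visual rating after about 3 weeks versus untreated controls (100% = plants dead, 0% = like control).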

DIGSA = assay: as above; format: in vivo, Digitaria sanguinalis; details: 320 g/ha, visual rating about 3 weeks after treatment
Procedure, shortened: as §1

ECHCG = assay: as above; format: in vivo, Echinochloa crus-galli
Procedure, shortened: as §1

AMARE = assay: as above; format: in vivo, Amaranthus retroflexus; details: visual rating about 3 weeks after treatment; for pest or weed control at 320 g/ha: Amaranthus retroflexus, 504 h, read-out: Post-emergence effect against AMARE
Procedure, shortened: as §1

SETVI = assay: as above; format: in vivo, Setaria viridis
Procedure, shortened: as §1

VERPE = assay: as above; format: in vivo, Veronica persica
Procedure, shortened: as §1

ORYSA = assay: Post-emergence herbicidal effect and crop plant compatibility, greenhouse pot test; format: in vivo, Oryza sativa; details: for Post-emergence effect against ORYSA: visual rating about 3 weeks after treatment, crop plant; for Post-emergence effect at 320 g/ha against ORYSA in %: one-leaf stage, rated visually after about 3 weeks vs untreated controls
Text: • ALOMY: Alopecurus myosuroides SETVI: Setaria viridis • AVEFA: Avena fatua POLCO: Fallopia convolvulus • AMARE: Amaranthus retroflexus ECHCG: Echinochloa crus-galli • LOLRJ: Lolium rigidum STEME: Stellaria media • VERPE: Veronica persica MATIN: Tripleurospermum inodorum • DIGSA: Digitaria sanguinalis ABUTH: Abutylon threophrasti • TRZAS: Triticum aestivum VIOTR: Viola tricolor • BRSNW: Brassica napus ZEAMX: Zea mays • PHBPU: Ipomoea purpurea GLXMA: Glycine max • ORYSA: Oryza sativa HORMU: Hordeum murinum
Seeds of monocotyledonous and dicotyledonous weeds and crop plants are placed in sandy loam in plastic or organic planting pots, covered with soil and cultivated in a greenhouse under controlled growth conditions. 2 to 3 weeks after sowing, the trial plants are treated at the one-leaf stage. The compounds of the invention, formulated in the form of wettable powders (WP) or as emulsion concentrates (EC), are then sprayed onto the green parts of the plants as aqueous suspension or emulsion with addition of 0.5% additive at a water application rate of 600 l/ha (converted). After the test plants have been kept in the greenhouse under optimum growth conditions for about 3 weeks, the activity of the preparations is rated visually in comparison to untreated controls. For example, 100% activity=the plants have died, 0% activity=like control plants.
Tables 20a to 38c below show the effects/crop compatibilities of selected compounds of the general formula (I) on various harmful plants at an application rate corresponding to 20 to 320 g/ha, which were obtained by the trial procedure specified above.

VIOTR = assay: Post-emergence herbicidal effect, greenhouse pot test; format: in vivo, Viola tricolor
Procedure, shortened: as §1

TRZAS = assay: Post-emergence herbicidal effect and crop plant compatibility, greenhouse pot test; format: in vivo, Triticum aestivum; details: 20 g/ha, one-leaf stage, rated visually after about 3 weeks vs untreated controls; for percent crop injury (phytotoxicity) to wheat, post-emergence at 20 g/ha: Triticum aestivum, 504 h, read-out: Post-emergence effect at 20 g/ha against TRZAS in %
Procedure, shortened: (§2)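 Greenhouse pot test: weeds and crops sown in sandy loam, sprayed post-emergence at one-leaf stage (2–3 weeks after sowing) with WP or EC formulations plus 0.5% additive at 600 l/ha water, rates 20–320 g/ha. Visual rating about 3 weeks later versus untreated controls (100% = dead, 0% = as control).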

AVEFA = assay: Post-emergence herbicidal effect, greenhouse pot test; format: in vivo, Avena fatua; details: visual rating about 3 weeks after treatment
Procedure, shortened: as §1

PHBPU = assay: as above; format: in vivo, Ipomoea purpurea
Procedure, shortened: as §1

MATIN = assay: as above; format: in vivo, Tripleurospermum inodorum
Procedure, shortened: as §1

ALOMY = assay: as above; format: in vivo, Alopecurus myosuroides; details: 320 g/ha, visual rating about 3 weeks after treatment
Procedure, shortened: as §1

ABUTH = assay: as above; format: in vivo, Abutilon theophrasti; details: visual rating about 3 weeks after treatment
Procedure, shortened: as §1

ZEAMX = assay: Post-emergence herbicidal effect and crop plant compatibility, greenhouse pot test; format: in vivo, Zea mays; details: one-leaf stage, rated visually after about 3 weeks vs untreated controls
Procedure, shortened: as §2

LOLRI = assay: Post-emergence herbicidal effect, greenhouse pot test; format: in vivo, Lolium rigidum; details: Lolium rigidum, 504 h, 320 g/ha, read-out: Post-emergence effect against LOLRI in %
Procedure, shortened: as §1

[1] = Echinochloa crus-galli, 504 h, 320 g/ha, read-out: Post-emergence effect against ECHCG in %
[2] = Setaria viridis, 504 h, 320 g/ha, read-out: Post-emergence effect against SETVI in %
[3] = Ipomoea purpurea, 504 h, 320 g/ha, read-out: Post-emergence effect against PHBPU in %

With `COC(=O)C(OC)Oc1nn(-c2cccc(Cl)c2F)c(-c2cncc(F)c2)c1I` (centres unmarked) [Example I-19] the “Post-emergence effect against POLCO in %” value (POLCO; 80 g/ha) was 80%, the “Post-emergence effect against POLCO in %” value (POLCO; 320 g/ha) was 80% and the “Post-emergence effect against DIGSA” value (DIGSA) was 90%. The “Post-emergence effect against ECHCG in %” value (ECHCG; 80 g/ha) was 80%, the “Post-emergence effect against ECHCG in %” value (ECHCG; 320 g/ha) was 90% and the “Post-emergence effect against AMARE” value (AMARE; 80 g/ha) was 80%. For the same compound, the “Post-emergence effect against AMARE” value (AMARE; 320 g/ha) was 80%, the “Post-emergence effect against SETVI in %” value (SETVI; 320 g/ha) was 80% and the “Post-emergence effect against VERPE in %” value (VERPE; 80 g/ha) was 80%. The “Post-emergence effect against VERPE in %” value (VERPE; 320 g/ha) was 80%, the “Post-emergence effect against ORYSA” value (ORYSA; 20 g/ha) was 0% and the “Post-emergence effect against ORYSA” value (ORYSA; 80 g/ha) was 0%. For the same compound, the “Post-emergence effect at 320 g/ha against ORYSA in %” value (ORYSA) was 20%, the “Post-emergence effect against VIOTR in %” value (VIOTR; 80 g/ha) was 80% and the “Post-emergence effect against VIOTR in %” value (VIOTR; 320 g/ha) was 80%. For the same compound, the “Post-emergence effect at 20 g/ha against TRZAS in %” value (TRZAS) was 20%, the “Post-emergence effect against AVEFA” value (AVEFA; 320 g/ha) was 80% and the “Post-emergence effect against PHBPU in %” value (PHBPU; 20 g/ha) was 80%. The “Post-emergence effect against PHBPU in %” value (PHBPU; 80 g/ha) was 90%, the “Post-emergence effect against PHBPU in %” value (PHBPU; 320 g/ha) was 90% and the “Post-emergence effect against MATIN in %” value (MATIN; 320 g/ha) was 80%. The “Post-emergence effect against ALOMY” value (ALOMY) was 80%, the “Post-emergence effect against ABUTH” value (ABUTH; 80 g/ha) was 90% and the “Post-emergence effect against ABUTH” value (ABUTH; 320 g/ha) was 90%.
With `COC(Oc1nn(-c2ccccc2F)c(-c2ccc(F)nc2)c1Br)C(=O)O` (centres unmarked) [Example I-24] the “Post-emergence effect at 320 g/ha against ORYSA in %” value (ORYSA) was 10%, the “Post-emergence effect at 20 g/ha against TRZAS in %” value (TRZAS) was 0% and the “Post-emergence effect at 20 g/ha against ZEAMX in %” value (ZEAMX; 20 g/ha) was 0%. For the same compound, the “Post-emergence effect at 80 g/ha against ZEAMX in %” value (ZEAMX; 80 g/ha) was 10% and the plant injury at 320 g/ha (ZEAMX; Zea mays, 504 h, 320 g/ha, read-out: Post-emergence effect at 320 g/ha against ZEAMX in %) was 20%.
For `COC(=O)C(OC)Oc1nn(-c2cc(F)ccc2F)c(-c2cncc(F)c2)c1I` (centres unmarked) [Example I-28], the pest or weed control at 320 g/ha (POLCO; 320 g/ha) was 80%, the pest or weed control at 320 g/ha (DIGSA; Digitaria sanguinalis, 504 h, read-out: Post-emergence effect against DIGSA) was 80% and the pest or weed control at 80 g/ha (ECHCG; Echinochloa crus-galli, 504 h, 80 g/ha, read-out: Post-emergence effect against ECHCG in %) was 90%. For the same compound, the pest or weed control at 320 g/ha (ECHCG; [1]) was 90%, the pest or weed control at 320 g/ha (AMARE; 320 g/ha) was 80% and the pest or weed control at 80 g/ha (SETVI; Setaria viridis, 504 h, 80 g/ha, read-out: Post-emergence effect against SETVI in %) was 80%. For the same compound, the pest or weed control at 320 g/ha (SETVI; [2]) was 90%, the pest or weed control at 320 g/ha (VERPE; Veronica persica, 504 h, 320 g/ha, read-out: Post-emergence effect against VERPE in %) was 80% and the “Post-emergence effect at 320 g/ha against ORYSA in %” value (ORYSA) was 20%. The pest or weed control at 20 g/ha (VIOTR; Viola tricolor, 504 h, 20 g/ha, read-out: Post-emergence effect against VIOTR in %) was 80%, the pest or weed control at 80 g/ha (VIOTR; Viola tricolor, 504 h, 80 g/ha, read-out: Post-emergence effect against VIOTR in %) was 90% and the pest or weed control at 320 g/ha (VIOTR; Viola tricolor, 504 h, 320 g/ha, read-out: Post-emergence effect against VIOTR in %) was 90%. It also gave a percent crop injury (phytotoxicity) to wheat, post-emergence at 20 g/ha (TRZAS) of 20%, a pest or weed control at 320 g/ha (LOLRI) of 90% and a pest or weed control at 80 g/ha (AVEFA; Avena fatua, 504 h, 80 g/ha, read-out: Post-emergence effect against AVEFA) of 80%. The pest or weed control at 320 g/ha (AVEFA; Avena fatua, 504 h, 320 g/ha, read-out: Post-emergence effect against AVEFA) was 90%, the pest or weed control at 20 g/ha (PHBPU; Ipomoea purpurea, 504 h, 20 g/ha, read-out: Post-emergence effect against PHBPU in %) was 80% and the pest or weed control at 80 g/ha (PHBPU; Ipomoea purpurea, 504 h, 80 g/ha, read-out: Post-emergence effect against PHBPU in %) was 90%. The pest or weed control at 320 g/ha (PHBPU; [3]) was 90%, the pest or weed control at 20 g/ha (MATIN; Tripleurospermum inodorum, 504 h, 20 g/ha, read-out: Post-emergence effect against MATIN in %) was 80% and the pest or weed control at 80 g/ha (MATIN; Tripleurospermum inodorum, 504 h, 80 g/ha, read-out: Post-emergence effect against MATIN in %) was 90%. It also gave a pest or weed control at 320 g/ha (MATIN; Tripleurospermum inodorum, 504 h, 320 g/ha, read-out: Post-emergence effect against MATIN in %) of 90%, a pest or weed control at 320 g/ha (ALOMY; Alopecurus myosuroides, 504 h, read-out: Post-emergence effect against ALOMY) of 90% and a pest or weed control at 80 g/ha (ABUTH; Abutilon theophrasti, 504 h, 80 g/ha, read-out: Post-emergence effect against ABUTH) of 90%. It also gave a pest or weed control at 320 g/ha (ABUTH; Abutilon theophrasti, 504 h, 320 g/ha, read-out: Post-emergence effect against ABUTH) of 100%.
With `COC(=O)C(OC)Oc1nn(-c2cnccn2)c(-c2ccc(F)nc2)c1Br` (centres unmarked) [Example I-36] the pest or weed control at 320 g/ha (POLCO; 320 g/ha) was 80%, the pest or weed control at 320 g/ha (ECHCG; [1]) was 90% and the pest or weed control at 320 g/ha (AMARE; 320 g/ha) was 80%. The pest or weed control at 320 g/ha (SETVI; [2]) was 80%, the “Post-emergence effect at 320 g/ha against ORYSA in %” value (ORYSA) was 20% and the percent crop injury (phytotoxicity) to wheat, post-emergence at 20 g/ha (TRZAS) was 20%. The pest or weed control at 320 g/ha (LOLRI) was 80% and the pest or weed control at 320 g/ha (PHBPU; [3]) was 80%.
